From patent publication US20140288040A1, “SUBSTITUTED BENZYLAMINE COMPOUNDS, THEIR USE IN MEDICINE, AND IN PARTICULAR THE TREATMENT OF HEPATITIS C VIRUS (HCV) INFECTION” (ASTEX THERAPEUTICS LIMITED, priority 2011, published 2014)
pEC50, pIC50: −log10 of the molar value. Counter-ions that a name gives are not always drawn. Like-named read-outs stand apart in the source and are kept apart here.

Tests used:
[1] = test system: HCV subgenomic replicon in Huh-7 cells; experiment: Replicon assay, EC50 luciferase readout; assay type: cell-based, hepatitis C virus (HCV); conditions: Hepatitis C virus; for EC50: Huh-7, 72 h, Huh-7 replicon cells, 72 h, single value, or second value of a pair x:y, read-out: Activity EC50 (μM) (EC50 luciferase readout)
How it was run: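 Huh-7 cells carrying a subgenomic HCV replicon (NS3-NS5b, firefly luciferase-neo fusion) were treated with compound for 72 h at 37°C, 5% CO2. EC50 derived from Bright-Glo luciferase signal as a proxy for HCV RNA; cell viability measured in parallel by Alamar blue.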

[2] = target: T1, HCV NS3 protease (full length NS34a) (Hepatitis C virus genotype 1b, UniProt P26663); experiment: HCV NS3 protease assay (FRET, full length NS34a); assay type: biochemical
T1 construct: The protease activity of the full length NS34a was measured using a FRET-based assay; made in house
How it was run: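 FRET readout over 30 minutes at room temperature, with IC50 fitted to initial rates from replicate curves. Enzyme was full-length NS34a; substrate a peptide from the NS4AB cleavage site labelled with QXL520 and 5-FAMsp; buffer 50 mM Tris pH8 containing 20 mM DTT, 1% CHAPS, 10% glycerol and 5% DMSO.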

[3] = test system: HCV replicon GT1b RNA in Huh-7 cells; experiment: Quantitative RT-PCR of HCV replicon RNA levels; assay type: cell-based, hepatitis C virus (HCV)
Experimental: In order to directly determine HCV replicon RNA levels in HCV replicon bearing Huh-7 cells the cells were seeded at 100,000 cellswell, in 6 well tissue culture plates, and allowed to attach overnight before compound addition at a final DMSO concentration of 0.1%. At 72 hours post compound addition RNA was extracted from DMSO-only treated and compound-treated cells using a Qiagen RNeasy kit (Qiagen) according to the manufacturer's instructions. All samples were then normalized for total RNA concentration. […] Briefly, sample RNA (2 ng) was combined with the NS5A primers listed above at a final concentration of 1 μM and an equal volume of 2× Quantitect SYBR Green RT-PCR Master Mix. […] Amplification of HPRT RNA for each sample was determined in separate reactions. The amount of input RNA from the untreated control sample was varied in order to generate a standard curve by which the relative levels of replicon RNA from each treated sample could be expressed as fold changes relative to the untreated control sample. […] Values were calculated from the average of three independent experiments, where log10 [sequence] levels at day 3, 7, 10, and 14 post compound treatment were subtracted from log10 [sequence] […]

[4] = protease activity of full length NS34a, FRET peptide substrate, read-out: Activity IC50

T1 sequence (P26663 1658-1711): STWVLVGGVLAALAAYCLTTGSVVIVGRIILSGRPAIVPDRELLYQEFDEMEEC
T1 sequence (P26663 1027-1657): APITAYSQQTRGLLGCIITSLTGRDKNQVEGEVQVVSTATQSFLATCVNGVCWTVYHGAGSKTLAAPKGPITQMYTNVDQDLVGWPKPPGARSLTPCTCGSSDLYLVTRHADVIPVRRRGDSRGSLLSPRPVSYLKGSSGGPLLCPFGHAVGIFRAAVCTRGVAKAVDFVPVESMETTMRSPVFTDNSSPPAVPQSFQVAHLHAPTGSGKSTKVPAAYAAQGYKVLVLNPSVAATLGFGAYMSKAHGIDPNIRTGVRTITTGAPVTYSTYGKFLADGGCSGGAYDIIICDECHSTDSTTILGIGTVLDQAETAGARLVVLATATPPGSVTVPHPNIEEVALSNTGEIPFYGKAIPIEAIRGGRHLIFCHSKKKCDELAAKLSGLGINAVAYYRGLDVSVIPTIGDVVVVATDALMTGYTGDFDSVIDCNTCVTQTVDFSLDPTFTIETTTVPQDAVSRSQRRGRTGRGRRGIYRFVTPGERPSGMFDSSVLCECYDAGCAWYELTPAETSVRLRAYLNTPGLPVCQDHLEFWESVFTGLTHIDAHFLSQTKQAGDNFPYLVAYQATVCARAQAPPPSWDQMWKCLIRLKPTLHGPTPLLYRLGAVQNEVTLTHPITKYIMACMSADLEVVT

| Structure (SMILES) | EC50 [1] [µM] | pIC50 [2, 4] | further results |
| --- | --- | --- | --- |
| Cc1ccc(CN[C@H]2CC[C@H](N)CC2)c(F)c1Oc1ccccc1 [Example 272, trans-N-(2-Fluoro-4-methyl-3-phenoxy-benzyl)-cyclohexane-1,4-diamine.dihydrochloride] | 5.3 | 6.06 |  |
| N[C@@H](c1ccc(F)c(Oc2ccccc2)c1F)[C@H]1CCC(=O)NC1 [Example 74A] | > 30 |  | pIC50 ([2]; IC50 values of 10-150 μM against the protease activity of the full length NS34a, or at least 40% inhibition of protease activity at a concentration of 100 μM): 3.82 to 5.00 |
| CC[C@@H](N[C@@H](C)CC(=O)NCCNC)c1ccc(Cl)c(Oc2ccccc2)c1F [Example 241] | 0.98 |  | inhibition at 0.01 µM ([2]; read-out: Activity % inhibition @ 0.01 μM, 0.01 μM compound): 47% |
| CC[C@@H](N[C@H](CC(N)=O)C(C)C)c1ccc(Cl)c(Oc2ccccc2)c1F [Example 143] | 6.2 | 6.27 |  |
| CC[C@@H](N[C@@H](C)CC(N)=O)c1ccc(Cl)c(Oc2ccc(-c3cnco3)c(C)c2)c1F [Example 317] | 2.7 | 6.35 |  |
| CC[C@@H](N[C@@H](C)c1cn[nH]c1)c1ccc(Cl)c(Oc2ccccc2)c1F [Example 145A, [(R)-1-(4-Chloro-2-fluoro-3-phenoxy-phenyl)-propyl]-[(S)-1-(1H-pyrazol-4-yl)-ethyl]-amine. dihydrochloride] | 9.5 | 5.13 |  |
| CC[C@H](NCCO)c1ccc(F)c(Oc2ccccc2)c1F [Example 100, 2-[(S)-1-(2,4-Difluoro-3-phenoxy-phenyl)-propylamino]-ethanol.trifluoroacetate] | > 18 | 5.96 |  |
| CC[C@@H](N[C@@H](C)CC(N)=O)c1ccc(Cl)c(Oc2ccccc2)c1F (single isomer, unassigned) [Example 88] | 0.4 | 7.00 | pEC50 ([1]; Huh-7, replicon assay, set in line with previous observations, read-out: pre-determined EC50 set for the combination experiments): 6.52; decline in HCV replicon RNA over time ([3]; 10x EC50, day 3, 7, 10 and 14, compound alone): comparable over time with Danoprevir and VX-222; decline in HCV replicon RNA, combination ([3]; 10x EC50, in combination with either Danoprevir or VX-222): largest declines |
| CCC[C@@H](N)c1ccc(Cl)c(Oc2ccccc2)c1F [Example 118] | 4.4 | 5.77 |  |
| CC[C@@H](N[C@@H](C)CC(=O)NC1COC1)c1ccc(Cl)c(Oc2ccccc2)c1F [Example 222] | > 10 | 6.43 |  |
| CC[C@@H](CC(N)=O)N[C@H](CC)c1ccc(Cl)c(Oc2ccccc2)c1F [Example 134B, (S)-3-[(R)-1-(4-Chloro-2-fluoro-3-phenoxy-phenyl)-propylamino]-pentanoic acid amide.hydrochloride] | 0.4 | 7.08 |  |
